Source: patent US10870634B2, “Histone demethylase inhibitors” (CELGENE QUANTICEL RESEARCH, INC., priority 2016, dated 2020)

Molecular target: T1, Jarid1B (Homo sapiens, UniProt Q9UGL1)
T1 construct: purchased BPS Bioscience (or custom made by MolecularThroughput) 50121
T1 sequence (Q9UGL1 2-751): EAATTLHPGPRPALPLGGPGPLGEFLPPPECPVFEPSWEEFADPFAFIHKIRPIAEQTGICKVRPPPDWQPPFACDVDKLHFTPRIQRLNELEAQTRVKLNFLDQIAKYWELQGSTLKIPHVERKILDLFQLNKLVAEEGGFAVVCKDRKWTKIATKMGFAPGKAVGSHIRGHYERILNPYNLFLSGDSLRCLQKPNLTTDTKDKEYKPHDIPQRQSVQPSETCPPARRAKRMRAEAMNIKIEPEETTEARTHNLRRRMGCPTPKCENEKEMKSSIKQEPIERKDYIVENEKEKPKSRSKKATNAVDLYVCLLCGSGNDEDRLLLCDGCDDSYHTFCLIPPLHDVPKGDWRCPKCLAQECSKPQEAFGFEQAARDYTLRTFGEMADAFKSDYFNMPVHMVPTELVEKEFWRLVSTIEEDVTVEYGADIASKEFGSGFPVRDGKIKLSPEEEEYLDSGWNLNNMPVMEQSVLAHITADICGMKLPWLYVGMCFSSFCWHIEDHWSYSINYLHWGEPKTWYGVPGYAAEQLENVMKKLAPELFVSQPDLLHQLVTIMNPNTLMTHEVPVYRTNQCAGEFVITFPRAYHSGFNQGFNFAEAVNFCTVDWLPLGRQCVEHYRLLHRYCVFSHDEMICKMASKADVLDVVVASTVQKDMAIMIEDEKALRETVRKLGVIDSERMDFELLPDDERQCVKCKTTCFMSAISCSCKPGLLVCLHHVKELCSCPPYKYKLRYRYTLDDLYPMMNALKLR
Experiment: Jarid1B in vitro enzyme inhibition assay (TR-FRET)
Type: biochemical
Settings: 0.8 nM Jarid1B, 300 nM H3K4me3-biotin peptide, 2 μM alpha-ketoglutaric acid
Source text: This assay determines the ability of a test compound to inhibit Jarid1B, JMJD2C and JMJD3 demethylase activity. Baculovirus-expressed Jarid1B (GenBank Accession # NM-006618, AA 2-751) was purchased from BPS Bioscience (Cat #50121) or custom made by MolecularThroughput. Baculovirus-expressed JMJD2C (GenBank Accession # BC143571, AA 2-372) was purchased from BPS Bioscience (Cat #50105). Baculovirus-expressed JMJD3 (GenBank Accession # NM_001080424, AA1043-end) was purchased from BPS Bioscience (Cat #50115).
The ability of test compounds to inhibit the activity of Jarid1B was determined in 384-well plate format under the following reaction conditions: 0.8 nM Jarid1B, 300 nM H3K4me3-biotin labeled peptide (Anaspec cat #64357), 2 μM alpha-ketoglutaric acid in assay buffer of 50 mM HEPES, pH 7.3, 0.005% Brij35, 0.5 mM TCEP, 0.2 mg/ml BSA, 50 μM sodium L-ascorbate, and […] ammonium ironII sulfate. Reaction product was determined quantitatively by TR-FRET after the addition of detection reagent Phycolink Streptavidin-allophycocyanin (Prozyme) and Europium-anti-mono-or di-methylated historic H3 lysine 4 (H3K4me1-2) antibody (PerkinElmer) in the presence of 5 mM EDTA in LANCE detection buffer (PerkinElmer) at a final concentration of 25 nM and 1 nM, respectively.
The assay reaction was initiated by the following: 2 μl of the mixture of 900 nM H3K4me3-biotin labeled peptide and 6 μM alpha-ketoglutaric acid with 2 μl of 11-point serial diluted inhibitor in 3% DMSO was added to each well of the plate, followed by the addition of 2 μl of 2.4 nM Jarid1B to initiate the reaction. […] Plates were read by EnVisionMultilabel Reader in TR-FRET mode (excitation at 320 nm, emission at 615 nm and 665 nm) after 1 hr incubation at room temp. A ratio was calculated (665/615) for each well and fitted to determine inhibition constant (IC50).
The ability to inhibit demethylase activity was quantified and the respective IC50 value was determined for substituted triazolylpyridine derivative compounds. […]

IC50, > 10 µM:
Fc1cnccc1-c1nn[nH]c1C(F)(F)F [Example 1, 3-fluoro-4-[5-(trifluoromethyl)-1H-1,2,3-triazol-4-yl]pyridine]
Fc1ccc(Cl)cc1Nc1cnccc1-c1nn[nH]c1C(F)(F)F [Example 2, N-(5-chloro-2-fluorophenyl)-4-[5-(trifluoromethyl)-1H-1,2,3-triazol-4-yl]pyridin-3-amine]
FC(F)(F)c1[nH]nnc1-c1ccncc1NCC1CCCc2ccccc21 (stereo not drawn) [Example 3, N-[(1,2,3,4-tetrahydronaphthalen-1-yl)methyl]-4-[5-(trifluoromethyl)-1H-1,2,3-triazol-4-yl]pyridine-3-amine]
